Experiment: xn = mol fraction of the nth substance listed
Conditions: Fluid (supercritical or subcritical phases), isochoric method

[N-]=[N+]=O [nitrous oxide] + FC(F)F
Conditions | molar volume [m3/mol]
253.03 K, 1464.8 kPa, x1 = 0.1116 | 0.001035
253.09 K, 1627.2 kPa, x1 = 0.4162 | 0.000978
258 K, 1541.9 kPa, x1 = 0.1116 | 0.001035
258.06 K, 1905.9 kPa, x1 = 0.563 | 0.000867
258.08 K, 1718.9 kPa, x1 = 0.4162 | 0.000978
258.09 K, 1832.3 kPa, x1 = 0.2888 | 0.000828
262.96 K, 1968.2 kPa, x1 = 0.563 | 0.000867
263.06 K, 1593.9 kPa, x1 = 0.1116 | 0.001035
263.06 K, 1774.4 kPa, x1 = 0.4162 | 0.000979
263.08 K, 1926.6 kPa, x1 = 0.2888 | 0.000829
267.94 K, 2030.3 kPa, x1 = 0.563 | 0.000867
268 K, 1644.1 kPa, x1 = 0.1116 | 0.001035
268.04 K, 1829.1 kPa, x1 = 0.4162 | 0.000979
268.04 K, 1991.7 kPa, x1 = 0.2888 | 0.000829
268.04 K, 2663.9 kPa, x1 = 0.6362 | 0.000591
272.9 K, 1693.3 kPa, x1 = 0.1116 | 0.001035
272.93 K, 2055.2 kPa, x1 = 0.2888 | 0.000829
272.95 K, 2091.7 kPa, x1 = 0.563 | 0.000867
273.02 K, 2765.9 kPa, x1 = 0.6362 | 0.000591
273.03 K, 1883 kPa, x1 = 0.4162 | 0.000979
282.83 K, 2180.4 kPa, x1 = 0.2888 | 0.000829
282.84 K, 1790.6 kPa, x1 = 0.1116 | 0.001036
283 K, 1988.8 kPa, x1 = 0.4162 | 0.000979
283 K, 2957.6 kPa, x1 = 0.6362 | 0.000591
283.02 K, 2213.7 kPa, x1 = 0.563 | 0.000868
292.93 K, 3143.3 kPa, x1 = 0.6362 | 0.000591
293.06 K, 1887.6 kPa, x1 = 0.1116 | 0.001036
293.07 K, 2332 kPa, x1 = 0.563 | 0.000868
293.08 K, 2094.2 kPa, x1 = 0.4162 | 0.00098
298.02 K, 3235.8 kPa, x1 = 0.6362 | 0.000591
298.05 K, 1934.6 kPa, x1 = 0.1116 | 0.001037
298.08 K, 2145.4 kPa, x1 = 0.4162 | 0.00098
298.09 K, 2390.3 kPa, x1 = 0.563 | 0.000868
298.1 K, 2367.2 kPa, x1 = 0.2888 | 0.00083
308.02 K, 2027.4 kPa, x1 = 0.1116 | 0.001037
308.05 K, 3416.1 kPa, x1 = 0.6362 | 0.000592
308.06 K, 2246.6 kPa, x1 = 0.4162 | 0.000981
308.08 K, 2486.6 kPa, x1 = 0.2888 | 0.00083
308.42 K, 2509 kPa, x1 = 0.563 | 0.000869
317.83 K, 2615.8 kPa, x1 = 0.563 | 0.000869
318.02 K, 2345.8 kPa, x1 = 0.4162 | 0.000981
318.02 K, 2603.8 kPa, x1 = 0.2888 | 0.000831
318.03 K, 3592.6 kPa, x1 = 0.6362 | 0.000592
318.11 K, 2119.5 kPa, x1 = 0.1116 | 0.001037
328.1 K, 2210.6 kPa, x1 = 0.1116 | 0.001038
328.1 K, 2731.1 kPa, x1 = 0.563 | 0.000869
328.11 K, 2445.5 kPa, x1 = 0.4162 | 0.000981
328.12 K, 3768.5 kPa, x1 = 0.6362 | 0.000592
328.13 K, 2721.6 kPa, x1 = 0.2888 | 0.000831
338.08 K, 2300.2 kPa, x1 = 0.1116 | 0.001038
338.08 K, 2543.3 kPa, x1 = 0.4162 | 0.000982
338.08 K, 2836.1 kPa, x1 = 0.2888 | 0.000831
338.09 K, 2842.1 kPa, x1 = 0.563 | 0.00087
338.09 K, 3939.9 kPa, x1 = 0.6362 | 0.000592
348.06 K, 2388.8 kPa, x1 = 0.1116 | 0.001039
348.06 K, 2949.9 kPa, x1 = 0.2888 | 0.000832
348.06 K, 2951.9 kPa, x1 = 0.563 | 0.00087
348.07 K, 2640.2 kPa, x1 = 0.4162 | 0.000982
348.07 K, 4110.3 kPa, x1 = 0.6362 | 0.000593
358.03 K, 2476.8 kPa, x1 = 0.1116 | 0.001039
358.03 K, 3062.3 kPa, x1 = 0.2888 | 0.000832
358.04 K, 2736.3 kPa, x1 = 0.4162 | 0.000983
358.05 K, 3061.1 kPa, x1 = 0.563 | 0.00087
358.05 K, 4278.2 kPa, x1 = 0.6362 | 0.000593

Reference: the NIST ThermoML archive (doi:10.1016/j.fluid.2004.11.021)
